The subject of one experiment is LC3. Nature of the experiment: Autophagy assay, LC3 immunoblot in human fibroblasts (Fed/Hbss, with bafilomycin A1). The class given is cell-based. To be noted: Hbss starvation, with BafA1. The protocol: 5 × 10^4 wild-type human fibroblasts were seeded in a 12-well plate and treated overnight with DMSO or different TRPML1 inhibitors (EDME, PRU-10, PRU-12). The day after, cells were treated for 3 h in full media (Fed) or HBSS supplemented with 10 mM HEPES (nutrient starved) in presence of DMSO or different TRPML1 inhibitors (EDME, PRU-10, PRU-12). For autophagic flux experiments, cells were co-treated with 100 nM of bafilomycin A1 (Sigma).
Total cell lysates were prepared using TRIS HCl 10 mM pH 8.0 and 0.2% SDS supplemented with protein and phosphatase inhibitors (Sigma). Protein concentration was determined using the Bradford method. After SDS–polyacrylamide gel electrophoresis (PAGE) and immunoblotting, the protein recognized by the specific antibody was visualized by chemiluminescence methods (Luminata Crescendo Western HRP substrate, Millipore) using HRP-conjugated anti-rabbit or anti-mouse secondary antibodies (Cell Signalling). Images were acquired using Li-Cor Odyssey Fc Imaging System and densitometric quantification of unsaturated images was performed using ImageJ software (NIH). Uncropped and unprocessed western blot scans are provided as Fig. S1. The following primary antibodies were used: LC3 (Novus Cat. No. NB100-2220, 1:1000 in 5% milk), TFEB (Cell Signaling Cat. No. 4240, 1:1000 in 5% BSA) and β-actin (Santa Cruz Cat. No. Sc-47778, 1: 1000 in 5% BSA).
In general terms: Immunoblotting shows a protein as a band on a membrane.

Experiment [1] deals with hTRPML1∆NC-YFP. The class given is cell-based, human. The conditions noted are these: for TRPML1:TRPML2 fold selectivity: ratio of Fluo-4 IC50 values. The protocol: (§1) To identify inhibitors of TRPML1 and TRPML3, the Spectrum Collection compound library (MS Discoveries; 2000 compounds) and additional 430 bioactive compounds were screened. To this end, fluorometric Ca^2+ influx assays were performed by using the calcium dye Fluo-4/AM (Invitrogen, Thermo Fisher Scientific, Waltham, MA, USA) and a custom-made fluorescence imaging plate reader built into a robotic liquid handling station (Freedom Evo 150, Tecan, Männedorf, Switzerland). […] Screening compounds dissolved in DMSO (10 mM) were prediluted in 150 mM NaCl, 20 mM HEPES, pH 7.4, to a concentration of 200 µM. For primary screens, HEK293 stably expressing plasma membrane-targeted TRPML1 or TRPML3 were trypsinized and resuspended in cell culture medium supplemented with 4 µM Fluo-4/AM. After incubation at 37 °C for 30 min, the cell suspension was briefly centrifuged resuspended in HBS, and dispensed into black pigmented, clear-bottom 384-well microwell plates (Greiner μClear, Frickenhausen, Germany). Plates were placed into the FLIPR and fluorescence signals (excitation 470 nm, emission 515 nm) were recorded with a Zyla 5.5 camera (Andor, Belfast, UK) and the μManager software like previously described. In a first video, compound libraries were successively added to the cells with the Tecan 96-tip multichannel arm to a final concentration of 20 µM to map unspecific effects like autofluorescence or toxicity. In a second step the agonist ML-SA1 was pipetted in each well and fluorescence signals were recorded for 10 min. Analyses were done by calculating fluorescence intensities for each well and background areas with ImageJ (National Institutes of Health, Bethesda, MD, USA). Finally, the background was subtracted and the fluorescence intensities were normalized to initial intensities (F/F0). Concentration response curves were generated by the same procedure but compounds were manually prediluted in 96-well plates containing HBS, now supplemented with 0.1% bovine serum albumin. Here data was fitted to a four-parameter Hill equation to obtain Imin, Imax, IC50), and the Hill coefficient n.

The target in experiment [2] is T1, hTRPML1∆NC-YFP (Homo sapiens, UniProt Q9GZU1). The class given is cell-based. The conditions noted are these: for IC50: read-out: TRPML1 IC50, Fluo-4, 5 µM ML-SA1, Fig. 2a/4, Table S1. The procedure:
as §1

Another experiment has as its target T2, hTRPML3-YFP (Homo sapiens, UniProt Q8TDD5).
T2 construct: expressed in transfected cells
Nature of the experiment: Fluo-4 Ca2+ influx assay, HEK293 stably expressing hTRPML3-YFP, activated with ML-SA1. It counts as cell-based. The procedure: To identify inhibitors of TRPML1 and TRPML3, the Spectrum Collection compound library (MS Discoveries; 2000 compounds) and additional 430 bioactive compounds were screened. To this end, fluorometric Ca^2+ influx assays were performed by using the calcium dye Fluo-4/AM (Invitrogen, Thermo Fisher Scientific, Waltham, MA, USA) and a custom-made fluorescence imaging plate reader built into a robotic liquid handling station (Freedom Evo 150, Tecan, Männedorf, Switzerland). All measurements were done in a HEPES buffered solution (HBS), containing 132 mM NaCl, 6 mM KCl, 1 mM MgCl2, 1 mM CaCl2, 5.5 mM D-glucose, 10 mM HEPES, pH 7.4. Screening compounds dissolved in DMSO (10 mM) were prediluted in 150 mM NaCl, 20 mM HEPES, pH 7.4, to a concentration of 200 µM. For primary screens, HEK293 stably expressing plasma membrane-targeted TRPML1 or TRPML3 were trypsinized and resuspended in cell culture medium supplemented with 4 µM Fluo-4/AM. After incubation at 37 °C for 30 min, the cell suspension was briefly centrifuged resuspended in HBS, and dispensed into black pigmented, clear-bottom 384-well microwell plates (Greiner μClear, Frickenhausen, Germany). Plates were placed into the FLIPR and fluorescence signals (excitation 470 nm, emission 515 nm) were recorded with a Zyla 5.5 camera (Andor, Belfast, UK) and the μManager software like previously described. In a first video, compound libraries were successively added to the cells with the Tecan 96-tip multichannel arm to a final concentration of 20 µM to map unspecific effects like autofluorescence or toxicity. In a second step the agonist ML-SA1 was pipetted in each well and fluorescence signals were recorded for 10 min. Analyses were done by calculating fluorescence intensities for each well and background areas with ImageJ (National Institutes of Health, Bethesda, MD, USA). Finally, the background was subtracted and the fluorescence intensities were normalized to initial intensities (F/F0). Concentration response curves were generated by the same procedure but compounds were manually prediluted in 96-well plates containing HBS, now supplemented with 0.1% bovine serum albumin. Here data was fitted to a four-parameter Hill equation to obtain Imin, Imax, IC50), and the Hill coefficient n.

The target of a further experiment is T3, hTRPML2-YFP (Homo sapiens, UniProt Q8IZK6).
T3 construct: expressed in transfected cells
T3 sequence (Q8IZK6 1-566): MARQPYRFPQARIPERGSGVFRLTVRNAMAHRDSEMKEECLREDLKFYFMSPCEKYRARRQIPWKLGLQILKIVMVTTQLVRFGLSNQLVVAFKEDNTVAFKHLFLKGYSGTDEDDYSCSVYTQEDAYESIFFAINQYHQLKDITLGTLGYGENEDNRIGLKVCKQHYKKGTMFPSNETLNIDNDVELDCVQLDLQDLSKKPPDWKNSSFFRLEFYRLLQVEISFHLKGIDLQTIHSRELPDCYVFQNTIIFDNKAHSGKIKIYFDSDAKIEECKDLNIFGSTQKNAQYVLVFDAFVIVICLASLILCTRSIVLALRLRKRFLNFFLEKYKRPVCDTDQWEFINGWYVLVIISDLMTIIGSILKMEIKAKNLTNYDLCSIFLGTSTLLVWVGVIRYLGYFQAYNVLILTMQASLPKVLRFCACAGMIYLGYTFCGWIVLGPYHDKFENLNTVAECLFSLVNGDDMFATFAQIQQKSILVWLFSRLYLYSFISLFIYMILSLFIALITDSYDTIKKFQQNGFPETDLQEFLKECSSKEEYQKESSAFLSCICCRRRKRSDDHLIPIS
Nature of the experiment: Fluo-4 Ca2+ influx assay, HEK293 stably expressing hTRPML2-YFP, activated with ML-SA1. The class given is cell-based.

The target in another experiment is T4, human ERα (Homo sapiens, UniProt P03372).
T4 construct: host or cells: Saccharomyces cerevisiae
T4 sequence (P03372 whole entry): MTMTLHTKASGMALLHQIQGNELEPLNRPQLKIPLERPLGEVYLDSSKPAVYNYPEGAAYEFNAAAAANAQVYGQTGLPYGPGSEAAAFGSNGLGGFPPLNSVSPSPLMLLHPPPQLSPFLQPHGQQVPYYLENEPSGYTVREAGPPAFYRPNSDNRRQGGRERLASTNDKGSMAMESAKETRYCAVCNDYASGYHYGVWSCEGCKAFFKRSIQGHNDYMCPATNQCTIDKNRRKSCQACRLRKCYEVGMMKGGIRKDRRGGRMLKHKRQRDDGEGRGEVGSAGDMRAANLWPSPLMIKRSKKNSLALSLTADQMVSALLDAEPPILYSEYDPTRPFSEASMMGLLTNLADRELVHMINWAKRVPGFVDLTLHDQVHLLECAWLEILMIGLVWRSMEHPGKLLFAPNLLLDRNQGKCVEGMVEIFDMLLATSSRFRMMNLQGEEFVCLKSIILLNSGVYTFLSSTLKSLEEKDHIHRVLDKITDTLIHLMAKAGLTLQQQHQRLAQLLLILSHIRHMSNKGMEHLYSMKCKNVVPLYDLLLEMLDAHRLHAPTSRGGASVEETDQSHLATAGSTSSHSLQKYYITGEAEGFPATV
The experiment in a line: Yeast estrogen receptor assay (YES-assay), Saccharomyces cerevisiae transfected with human ERα, lacZ reporter. To be noted: 0.01-100 µM, 48 h. It counts as cell-based. The protocol:
The yeast estrogen receptor assay (YES-assay) was provided by Dr. J.P. Sumpter (Brunel University, Uxbridge, UK; Routledge & Sumpter, 1996) and was used to determine the relative transactivation activity of the human ERα in response to test substances as previously described. Briefly, Saccharomyces cerevisiae stably transfected with a human ERα construct and an estrogen responsive element fused to the reporter gene lacZ encoding for β-galactosidase were treated with the test substances for 48 h. The β-galactosidase enzymatic activity was measured in a colorimetric assay using the substrate chlorophenol red β-D-galactopyranoside (Roche Diagnostics, Mannheim Germany). Formation of chlorophenol red was measured at 540 nm. For the test, all compounds were diluted in DMSO. 17β-estradiol (10 nM; Sigma, Deisenhofen, Germany) served as positive control and DMSO was used as vehicle control. All compounds, were dose dependently tested in a concentration range of 0.01–100 µM, using technical quadruplicates and biological triplicates.

Experiment [3] concerns the target T1, hTRPML1∆NC-YFP. The conditions noted are these: 10 µM compound after 10 µM ML-SA1. The protocol:
Single cell Ca^2+ imaging experiments were performed using Fura-2 as previously described. HEK293 cells stably expressing hTRPML1∆NC-YFP, hTRPML2-YFP, hTPPML3-YFP or hTPC2L11A/L12A-RFP (22, 24) were cultured at 37 °C with 5% of CO2 in Dulbecco’s modified Eagle medium (Thermo Fisher), supplemented with 10% fetal bovine serum, 100 U/mL penicillin, and 0.1 mg/mL streptomycin. Cells were plated onto poly-L-lysine (sigma)-coated glass coverslips and grown for 2–3 days. For Ca^2+ imaging experiments cells were loaded for 1 h at room temperature with Fura-2 AM (4.0 µM) and 0.005% (v/v) pluronic acid (both from Thermo Fisher) in HEPES-buffered solution (HBS) comprising 138 mM NaCl, 6 mM KCl, 2 mM MgCl2, 2 mM CaCl2, 10 mM HEPES, and 5.5 mM D-glucose (adjusted to pH 7.4 with NaOH). After loading, cells were washed with HBS and mounted in an imaging chamber. All recordings were performed in HBS. Ca^2+ imaging was performed using a Leica DMi8 live cell microscope. Fura-2 was excited at 340 nm/380 nm. Emitted fluorescence was captured using 515 nm long-pass filter. Compounds were pre diluted in DMSO and stored as 10 mM stock solutions at − 20 °C, not exceeding three months. Working solutions were prepared directly before using by dilution with HBS.

The structures appear in SMILES notation. “And” between values parts separate entries of the source, which are not always exact repeats. Equal values may be shown once. “Also recorded” adds a separate entry of the source. Read-outs that look alike come from different tables or passages of the source.

T1 sequence (Q9GZU1 whole entry): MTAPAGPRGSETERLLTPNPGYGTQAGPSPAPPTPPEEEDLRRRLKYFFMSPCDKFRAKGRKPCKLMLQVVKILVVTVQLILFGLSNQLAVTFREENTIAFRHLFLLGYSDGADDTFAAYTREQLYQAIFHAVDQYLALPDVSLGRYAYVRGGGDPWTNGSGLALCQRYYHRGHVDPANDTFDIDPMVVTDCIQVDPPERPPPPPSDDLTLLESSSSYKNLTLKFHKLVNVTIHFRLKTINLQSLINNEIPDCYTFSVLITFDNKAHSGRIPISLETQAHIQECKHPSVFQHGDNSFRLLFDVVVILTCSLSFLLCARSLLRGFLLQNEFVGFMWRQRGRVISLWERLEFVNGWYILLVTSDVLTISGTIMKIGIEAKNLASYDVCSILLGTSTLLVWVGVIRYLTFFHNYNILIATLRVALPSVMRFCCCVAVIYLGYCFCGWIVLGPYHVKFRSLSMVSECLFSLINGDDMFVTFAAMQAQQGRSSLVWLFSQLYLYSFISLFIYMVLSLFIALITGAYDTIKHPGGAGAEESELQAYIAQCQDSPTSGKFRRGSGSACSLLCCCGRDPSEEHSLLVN
T2 sequence (Q8TDD5 whole entry): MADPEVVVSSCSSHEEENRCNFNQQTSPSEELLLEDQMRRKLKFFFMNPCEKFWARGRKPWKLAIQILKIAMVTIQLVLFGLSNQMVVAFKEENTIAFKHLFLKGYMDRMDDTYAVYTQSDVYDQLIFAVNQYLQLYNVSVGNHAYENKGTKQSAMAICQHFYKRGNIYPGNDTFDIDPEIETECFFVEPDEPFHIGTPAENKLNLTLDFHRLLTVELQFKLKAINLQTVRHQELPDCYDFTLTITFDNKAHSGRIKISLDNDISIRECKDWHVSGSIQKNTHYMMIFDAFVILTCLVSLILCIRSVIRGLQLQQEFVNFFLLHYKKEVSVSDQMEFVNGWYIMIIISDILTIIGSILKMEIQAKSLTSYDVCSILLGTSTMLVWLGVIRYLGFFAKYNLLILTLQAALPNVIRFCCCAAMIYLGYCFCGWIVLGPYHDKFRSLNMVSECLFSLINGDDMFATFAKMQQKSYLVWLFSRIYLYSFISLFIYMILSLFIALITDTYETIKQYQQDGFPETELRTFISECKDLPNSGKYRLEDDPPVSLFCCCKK

On to `C[C@]12CC[C@@H]3c4ccc(O)cc4CC[C@H]3[C@@H]1CC[C@@H]2O` [Estradiol, 17β-estradiol], for which the “concentration showing efficacy on autophagy (LC3)” value with LC3 is given as 10 µM. Further, the “effect on autophagy (LC3) at 10 nM or 1 µM” value in the experiment with LC3 is on record as “no effect”. The “TRPML1 versus TRPML3 selectivity” value in the experiment on hTRPML1∆NC-YFP [1] (Fluo-4, TRPML1 vs TRPML3, 5 µM ML-SA1) is “stronger inhibitory effects on TRPML1 than on TRPML3”. For the same molecule, the “TRPML1:TRPML2 fold selectivity” value in the experiment with hTRPML1∆NC-YFP [1] was 5.77 fold. Further, the IC50 is 5.3 µM at hTRPML1∆NC-YFP [2]; > 50 µM on hTRPML3-YFP (Fluo-4, 5 µM ML-SA1, Table S1, read-out: TRPML3 IC50); 30.4 µM against hTRPML2-YFP (TRPML2 IC50, Fluo-4, 5 µM ML-SA1, Table S1).

Turning to `COc1ccc2c(c1)CC[C@@H]1[C@@H]2CC[C@]2(C)[C@H](O)CC[C@@H]12` [PRU-2], the “TRPML1:TRPML2 fold selectivity” value in the experiment on hTRPML1∆NC-YFP [1] amounted to 2.67 fold. In addition, the “activity in concentration-response measurements on TRPML1” value at hTRPML1∆NC-YFP [2] (Fluo-4, 5 µM ML-SA1) is “only poor activity”. Besides, the IC50 at hTRPML1∆NC-YFP [2] was 13.8 µM and 14 µM; against hTRPML3-YFP, > 50 µM; at hTRPML2-YFP (Fluo-4, 5 µM ML-SA1, Table S1, read-out: TRPML2 IC50), 37 µM. Further, the “effect/efficacy at ERα” value on human ERα was “relatively low efficacy; also recorded: weakest effects”. In addition, the “efficacy in blocking TRPML1, Fura-2” value at hTRPML1∆NC-YFP [3] was “exception”.

For orientation: IC50 means the concentration that inhibits the measured activity by half.

The record behind these values is PMC8050276, “Estradiol analogs attenuate autophagy, cell migration and invasion by direct and selective inhibition of TRPML1, independent of estrogen receptors” (Scientific Reports, 2021).
